According to the supplement of paper PMC10307832:

How the values were obtained:
Assay in all cases: relative viability (nuclei count vs DMSO), 5 days (fraction); higher = more cells survive
Lapatinib + Decitabine = compound: CS(=O)(=O)CCNCc1ccc(-c2ccc3ncnc(Nc4ccc(OCc5cccc(F)c5)c(Cl)c4)c3c2)o1 [Lapatinib] + Nc1ncn([C@H]2C[C@H](O)[C@@H](CO)O2)c(=O)n1 [Decitabine] (partner 2 µM)
How it was run: (§1)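 Relative viability was taken as the ratio of nuclei in treated wells to nuclei in vehicle wells. Lung cancer cell lines in 1536-well plates received compounds by pin tool one day after seeding, either one drug alone or a fixed anchor-drug dose plus five library-drug doses (not always all listed) in √10 steps. Nuclei were counted on 4× images after 5 days of treatment, and values are medians of duplicate plates.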

Wnt-C59 + Dasatinib = compound: CC1=NC=CC(=C1)C2=CC=C(C=C2)CC(=O)NC3=CC=C(C=C3)C4=CN=CC=C4 [Wnt-C59] + Cc1nc(Nc2ncc(C(=O)Nc3c(C)cccc3Cl)s2)cc(N2CCN(CCO)CC2)n1 [Dasatinib] (partner 0.075 µM)
How it was run: as §1

Lapatinib + Navitoclax = compound: CS(=O)(=O)CCNCc1ccc(-c2ccc3ncnc(Nc4ccc(OCc5cccc(F)c5)c(Cl)c4)c3c2)o1 [Lapatinib] + CC1(C)CCC(c2ccc(Cl)cc2)=C(CN2CCN(c3ccc(C(=O)NS(=O)(=O)c4ccc(N[C@H](CCN5CCOCC5)CSc5ccccc5)c(S(=O)(=O)C(F)(F)F)c4)cc3)CC2)C1 [Navitoclax] (partner 0.5 µM)
How it was run: as §1

Lapatinib + Olaparib = compound: CS(=O)(=O)CCNCc1ccc(-c2ccc3ncnc(Nc4ccc(OCc5cccc(F)c5)c(Cl)c4)c3c2)o1 [Lapatinib] + O=C(c1cc(Cc2n[nH]c(=O)c3ccccc23)ccc1F)N1CCN(C(=O)C2CC2)CC1 [Olaparib] (partner 8 µM)
How it was run: as §1

Cell Line	relative viability (Lapatinib + Decitabine; first compound 0.02 µM)	relative viability (Lapatinib + Decitabine; first compound 0.06325 µM)	relative viability (Lapatinib + Decitabine; first compound 0.2 µM)	relative viability (Lapatinib + Decitabine; first compound 0.6325 µM)	relative viability (Lapatinib + Decitabine; first compound 2 µM)	relative viability (Wnt-C59 + Dasatinib; first compound 0.001 µM)	relative viability (Wnt-C59 + Dasatinib; first compound 0.01 µM)	relative viability (Wnt-C59 + Dasatinib; first compound 0.03162 µM)	relative viability (Wnt-C59 + Dasatinib; first compound 0.1 µM)	relative viability (Lapatinib + Navitoclax; first compound 0.02 µM)	relative viability (Lapatinib + Navitoclax; first compound 0.06325 µM)	relative viability (Lapatinib + Navitoclax; first compound 0.2 µM)	relative viability (Lapatinib + Navitoclax; first compound 0.6325 µM)	relative viability (Lapatinib + Navitoclax; first compound 2 µM)	relative viability (Lapatinib + Olaparib; first compound 0.02 µM)	relative viability (Lapatinib + Olaparib; first compound 0.06325 µM)	relative viability (Lapatinib + Olaparib; first compound 0.2 µM)	relative viability (Lapatinib + Olaparib; first compound 0.6325 µM)	relative viability (Lapatinib + Olaparib; first compound 2 µM)
NCI-H520	0.433	0.494	0.572	0.529	0.575	0.217	0.189	0.208	0.174	0.951	1.06	1.08	1.25	0.972	0.349	0.278	0.363	0.326	0.366
NCI-H596	–	0.979	0.793	1.04	0.957	0.609	0.477	0.554	0.611	0.978	0.95	0.922	0.97	0.706	–	0.578	0.713	0.679	0.567
NCI-H647	0.416	0.284	0.431	0.377	0.383	0.193	0.166	0.2	0.152	–	1.14	1.05	1.04	0.963	0.536	0.412	0.506	0.523	0.489
NCI-H727	0.756	–	0.915	0.915	0.917	0.298	–	0.363	0.388	0.388	0.341	0.401	0.4	0.32	0.666	–	0.88	0.668	0.645
NCI-H838	0.475	0.453	0.495	0.484	0.44	0.291	0.29	0.288	0.302	1.13	1.06	1.16	1.17	1	0.773	0.715	0.771	0.746	0.575
NCI-H1355	0.352	0.33	0.333	0.307	0.353	0.725	0.533	0.711	0.617	–	0.861	0.824	0.906	0.498	0.719	0.594	0.699	0.688	0.439
NCI-H1395	–	0.719	0.802	0.729	0.701	0.406	0.398	0.423	0.444	–	1.05	1.14	1.62	1.14	–	0.455	0.459	0.522	0.415
NCI-H1437	0.603	0.527	0.56	0.53	0.569	0.378	0.308	0.384	0.495	1.09	1.08	1.11	1.03	1	0.62	0.626	0.62	0.609	0.507
NCI-H1650	0.362	0.509	0.418	0.371	0.503	0.302	0.333	0.309	0.322	1.06	1.11	1.24	1.01	0.761	0.73	0.847	0.767	0.802	0.621
